Patent publication US20240408093A1, “HETEROBIFUNCTIONAL COMPOUNDS AND THEIR USE IN TREATING DISEASE” (HALDA THERAPEUTICS OPCO, INC., priority 2022, published 2024)
pIC50: −log10 of the molar value.

Assays:
[1] = system: HEK293 cells (ATCC CRL-1573); assay: Cellular growth inhibition assay, HEK293 cells (Example 16); type: cell-based; conditions: Homo sapiens, 72 hours, CellTiter-Glo 2.0
Experimental: (§1) Exemplary compounds were tested for ability to inhibit the proliferation of HEK293 cells (ATCC CRL-1573) and HeLa cells (ATCC CCL-2).
(§2) HEK293 and HeLa cells were cultured in DMEM (Gibco 11995), supplemented with 10% Heat-inactivated FBS (Gibco A38400-01) and 1% Penicillin/Streptomycin (Gibco 15140-122) at 37° C. with 5% CO2 in a humidified tissue culture incubator. Cells were seeded at 500 cells/well in 384-well, Poly-D-lysine-treated blackplates (Perkin Elmer 6007710) in 25 μL media lacking selection for 18-24 hours. Plates were spun at 300 g for 30 seconds and stored in the incubator overnight. After 24 hours, a 25 μL aliquot of compound-containing medium was added in each well, at a final top concentration of 10 μM test compound, with 3-fold dilutions, using DMSO alone as a negative control. Plates were then spun at 300×g for 3 minutes again and cultured at 37° C. with 5% CO2. After 72 hours, cell viability was quantified with CellTiter-Glo 2.0 (Promega). After equilibrating cell plates at room temperature for 30 minutes, 25 μL CellTiter-Glo 2.0 reagent was dispensed into each well. Plates were mixed on a shaker for 2 minutes at 500 rpm, followed by a 10-minute incubation at room temperature. Luminescence readings were measured with an EnVision Plate Reader (Perkin Elmer). Data was normalized to DMSO treated cell wells. A four-parameter non-linear regression curve fit was applied to dose-response data in Prism to determine the half maximal growth inhibitory concentration (GI50) of each compound.

HeLa cells (ATCC CCL-2) = assay: Cellular growth inhibition assay, HeLa cells (Example 16); type: cell-based; conditions: Homo sapiens, 72 hours, CellTiter-Glo 2.0
Experimental: as §1, §2

GSPT1 = molecular target: T1, GSPT1 (Homo sapiens, UniProt P15170+Q96SW2); assay: GSPT1 HiBiT degradation assay; type: cell-based; conditions: HEK293 LgBiT GSPT1 HiBiT cells, 6 hours
T1 construct: host or cells: HEK293 LgBiT / GSPT1 HiBiT CRISPR knock-in
Excerpt: Promega developed a HEK293 cell line that constitutively expresses LgBiT protein and GSPT1_HiBiT fusion protein. When both proteins are present, the HiBiT portion of the fusion protein combines with LgBiT protein to form a functional luciferase enzyme. Endurazine, a cell permeable small molecule, is converted by cellular esterases into furimazine, which the luciferase enzyme uses as a substrate to generate luminescence. When GSPT1 is degraded, the HiBit is also degraded. This prevents formation of fully functional luciferase, leading to a loss in luminescence. GSPT1 degradation therefore correlates with a decrease in luminescence and can be measured continuously over time. The concentration of compound at which 50% GSPT1 degradation occurs (DC50) may be calculated using this system.
HEK293 LgBiTGSPT1 HiBiT CRISPR Knock-in cells were cultured in DMEM Media supplemented with 10% Heat-inactivated FBS, 1% Penicillin/Streptomycin, 200 μg/mL hygromycin and stored in a humidified incubator set at 37° C. and 5% CO2. 18-24 hours prior to compound treatment, cells were seeded at 1000 cells/well in a 384-well tissue culture-treated white plates in 25 μL media lacking selection for 18-24 hours. The plates were spun at 300 g for 30 seconds and stored in the incubator overnight. After 24 hours, compounds are titrated in DMSO and added to media supplemented with endurazine substrate. A 25 μL aliquot of 2× compound/endurazine in media is then added to the 384-well microplate with seeded cells. (Endurazine is used at a final concentration of 0.5×). The plate was spun at 300 g for 30 seconds and stored in the incubator. After 6 hours, the plate was read on a Perkin Elmer MultiMode Plate Reader Envision 2105 to measure luminescence signal. Data were plotted in Prism (Graphpad) and the concentration of compound at which 50% GSPT1 degradation occurs (DC50) was calculated.

KRAS G12C = KRAS G12C (Homo sapiens, UniProt P01116, G12C); assay: KRAS G12C nucleotide exchange assay (SOS1-mediated, HTRF); type: biochemical; parameters: GST-tagged KRAS G12C (amino acids 2-169); conditions: 1 hr pre-incubation
Experimental: KRAS target engagement (IC50 determination) was performed using a KRAS G12C nucleotide exchange assay. Specifically, compounds were tested against KRAS G12C in 10-point concentration IC50 mode with 3-fold serial dilution at a starting concentration of 10 μM. ARS1620 was used as a control.
Briefly, GST-tagged KRAS G12C (amino acids 2-169) was mixed with anti-GST Tb antibody (1.5× solution) and 10 μL was delivered to reaction wells. Compounds were delivered using an acoustic dispenser (Echo, Labcyte) and pre-incubated with protein for 1 hr at RT. KRAS/anti-GST Tb Ab/compound mixture was incubated for 1 hour at room temperature. A 3× solution of SOS1 (amino acids 564-1049) and GTP-DY-647P1 (GTP*) was prepared in reaction buffer. A 5 μL aliquot of SOS1/GTP* solution was added to reaction wells to initiate the exchange reaction. No-SOS1 reaction or max compound concentration was used as blank. The final concentrations of KRAS G12C, SOS1, and GTP* were 30 nM, 20 nM, and 0.15 μM, respectively. SOS1 mediated exchange of GDP to GTP-DY-647P was measured using HTRF (Ex/Em=(320-75/665-7.5; 615-8.5)) using an Envision Plate Reader (Perkin Elmer). IC50 determination was performed using a Sigmoidal dose response (variable slope) equation.

T1 sequence (P15170 whole entry): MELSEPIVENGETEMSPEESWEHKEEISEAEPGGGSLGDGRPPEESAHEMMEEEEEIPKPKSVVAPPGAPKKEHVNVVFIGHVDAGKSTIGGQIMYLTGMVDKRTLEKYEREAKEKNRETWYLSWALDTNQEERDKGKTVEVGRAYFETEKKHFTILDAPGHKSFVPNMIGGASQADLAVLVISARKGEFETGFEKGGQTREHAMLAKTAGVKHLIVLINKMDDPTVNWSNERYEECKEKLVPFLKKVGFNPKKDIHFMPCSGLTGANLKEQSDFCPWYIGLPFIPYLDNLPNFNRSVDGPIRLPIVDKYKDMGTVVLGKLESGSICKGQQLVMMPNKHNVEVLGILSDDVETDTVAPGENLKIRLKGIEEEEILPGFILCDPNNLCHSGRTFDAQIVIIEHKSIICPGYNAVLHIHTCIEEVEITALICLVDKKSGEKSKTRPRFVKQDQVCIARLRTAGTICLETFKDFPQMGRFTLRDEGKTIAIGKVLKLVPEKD
T1 sequence (Q96SW2 whole entry): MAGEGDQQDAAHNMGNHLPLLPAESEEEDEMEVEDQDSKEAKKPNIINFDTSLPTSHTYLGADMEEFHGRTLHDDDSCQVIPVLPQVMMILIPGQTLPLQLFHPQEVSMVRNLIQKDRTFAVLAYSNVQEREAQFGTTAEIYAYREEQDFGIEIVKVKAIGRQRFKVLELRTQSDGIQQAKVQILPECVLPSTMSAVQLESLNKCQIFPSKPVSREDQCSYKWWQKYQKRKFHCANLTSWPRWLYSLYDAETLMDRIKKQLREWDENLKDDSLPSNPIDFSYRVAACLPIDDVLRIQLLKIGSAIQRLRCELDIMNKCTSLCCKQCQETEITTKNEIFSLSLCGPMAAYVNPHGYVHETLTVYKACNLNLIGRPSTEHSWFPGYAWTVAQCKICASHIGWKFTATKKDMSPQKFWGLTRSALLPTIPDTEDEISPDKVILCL
T1 sequence (Q16531 whole entry partner): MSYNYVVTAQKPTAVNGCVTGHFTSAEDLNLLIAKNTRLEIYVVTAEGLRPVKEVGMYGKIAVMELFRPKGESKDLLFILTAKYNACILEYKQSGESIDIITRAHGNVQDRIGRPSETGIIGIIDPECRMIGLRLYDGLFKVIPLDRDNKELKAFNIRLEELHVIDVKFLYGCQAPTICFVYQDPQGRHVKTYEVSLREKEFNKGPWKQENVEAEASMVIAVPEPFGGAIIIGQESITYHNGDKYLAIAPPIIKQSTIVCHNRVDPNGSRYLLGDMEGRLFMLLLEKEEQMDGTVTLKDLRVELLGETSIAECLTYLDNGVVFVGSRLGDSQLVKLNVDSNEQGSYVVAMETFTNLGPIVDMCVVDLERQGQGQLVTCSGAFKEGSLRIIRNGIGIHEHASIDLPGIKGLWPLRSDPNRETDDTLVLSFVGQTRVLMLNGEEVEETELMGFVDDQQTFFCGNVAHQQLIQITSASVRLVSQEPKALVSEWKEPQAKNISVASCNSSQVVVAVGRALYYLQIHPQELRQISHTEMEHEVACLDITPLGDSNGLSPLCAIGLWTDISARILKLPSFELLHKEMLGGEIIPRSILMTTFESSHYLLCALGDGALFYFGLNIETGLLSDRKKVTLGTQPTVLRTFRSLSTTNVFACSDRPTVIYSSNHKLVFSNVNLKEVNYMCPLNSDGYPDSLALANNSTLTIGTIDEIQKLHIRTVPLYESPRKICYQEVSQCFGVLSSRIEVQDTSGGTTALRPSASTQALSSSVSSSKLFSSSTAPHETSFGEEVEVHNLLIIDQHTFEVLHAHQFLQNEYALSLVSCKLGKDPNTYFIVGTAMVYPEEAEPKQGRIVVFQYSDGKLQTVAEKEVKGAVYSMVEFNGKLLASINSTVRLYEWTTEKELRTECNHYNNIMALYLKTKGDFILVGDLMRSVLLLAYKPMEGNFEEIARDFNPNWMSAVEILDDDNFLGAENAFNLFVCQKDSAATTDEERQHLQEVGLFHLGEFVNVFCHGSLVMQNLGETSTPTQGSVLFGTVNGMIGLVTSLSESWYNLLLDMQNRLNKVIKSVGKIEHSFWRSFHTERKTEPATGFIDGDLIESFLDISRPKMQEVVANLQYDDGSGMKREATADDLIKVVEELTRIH
KRAS G12C, sequence (P01116 2-169 isoform P01116-2 G12C): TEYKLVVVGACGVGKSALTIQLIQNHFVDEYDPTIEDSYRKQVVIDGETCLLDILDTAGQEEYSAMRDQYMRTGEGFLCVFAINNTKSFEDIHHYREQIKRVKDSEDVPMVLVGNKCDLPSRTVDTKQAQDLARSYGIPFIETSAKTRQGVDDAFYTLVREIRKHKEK

## C=C(CN1C(=O)CCC(N2Cc3cc(CNC(=O)NCc4cccc(C(F)(F)F)c4O)ccc3C2=O)C1=O)C(=O)N1CCN(c2nc(OC[C@@H]3CCCN3C)nc3c2CCN(c2cccc4cccc(Cl)c24)C3)C[C@@H]1CC#N (stereo in doubt) [Compound I-94]
[1]
  GI50: 1.5 to 10 µM
HeLa cells (ATCC CCL-2)
  GI50: > 10 µM

## C=C(CN1C(=O)CCC(N2Cc3cc(CNC(=O)Nc4ccc(C)c(Cl)c4)ccc3C2=O)C1=O)C(=O)N1CCN(c2nc(=O)n(-c3c(C)ccnc3C(C)C)c3nc(-c4c(O)cccc4F)c(F)cc23)[C@@H](C)C1 (stereo partly drawn) [Compound I-1, 1-(3-chloro-4-methyl-phenyl)-3-[[2-[1-[2-[(3S)-4-[6-fluoro-7-(2-fluoro-6-hydroxy-phenyl)-1-(2-isopropyl-4-methyl-3-pyridyl)-2-oxo-pyrido[2,3-d]pyrimidin-4-yl]-3-methyl-piperazine-1-carbonyl]allyl]-2,6-dioxo-3-piperidyl]-1-oxo-isoindolin-5-yl]methyl]urea]
GSPT1
  DC50: 0.5 to 2.5 µM

## C=C(CN1C(=O)CCC(N2Cc3cc(CNC(=O)Nc4ccc(C)c(Cl)c4)ccc3C2=O)C1=O)C(=O)N1CCN(c2nc(OC[C@@H]3CCCN3C)nc3c2CCN(c2cccc4cccc(Cl)c24)C3)C[C@@H]1CC#N (stereo partly drawn) [Compound I-2, 1-(3-chloro-4-methyl-phenyl)-3-[[2-[1-[2-[(2S)-4-[7-(8-chloro-1-naphthyl)-2-[[(2S)-1-methylpyrrolidin-2-yl]methoxy]-6,8-dihydro-5H-pyrido[3,4-d]pyrimidin-4-yl]-2-(cyanomethyl)piperazine-1-carbonyl]allyl]-2,6-dioxo-3-piperidyl]-1-oxo-isoindolin-5-yl]methyl]urea]
GSPT1
  DC50: 0.05 to 0.5 µM
KRAS G12C
  pIC50: < 5.00

## C=C(CN(Cc1ccc2c(c1)CN(C1CCC(=O)NC1=O)C2=O)C(=O)Nc1ccc(C)c(Cl)c1)C(=O)N1CCN(c2nc(OC[C@@H]3CCCN3C)nc3c2CCN(c2cccc4cccc(Cl)c24)C3)C[C@@H]1CC#N (stereo partly shown) [Compound I-33]
[1]
  GI50: 1.5 to 10 µM
HeLa cells (ATCC CCL-2)
  GI50: 1.5 to 10 µM
GSPT1
  DC50: > 2.5 µM

## C=C(CN(C(=O)NCc1ccc2c(c1)CN(C1CCC(=O)NC1=O)C2=O)c1ccc(C)c(Cl)c1)C(=O)N1CCN(c2nc(OC[C@@H]3CCCN3C)nc3c2CCN(c2cccc4cccc(Cl)c24)C3)C[C@@H]1CC#N (stereo partly shown) [Compound I-34]
[1]
  GI50: < 0.5 µM
HeLa cells (ATCC CCL-2)
  GI50: 1.5 to 10 µM
GSPT1
  DC50: 0.05 to 0.5 µM

## C=C(COc1ccc(CN2C(=O)CCC(N3Cc4cc(CNC(=O)Nc5ccc(C)c(Cl)c5)ccc4C3=O)C2=O)cc1)C(=O)N1CCC[C@@H](n2nc(-c3ccc(Oc4ccccc4)cc3)c3c(N)ncnc32)C1 (stereo partly shown) [Compound I-36]
[1]
  GI50: > 10 µM
HeLa cells (ATCC CCL-2)
  GI50: > 10 µM
GSPT1
  DC50: > 2.5 µM

## C=C(CN(C(=O)NCc1ccc2c(c1)CN(C1CCC(=O)NC1=O)C2=O)c1cc(Cl)cc([N+](=O)[O-])c1)C(=O)N1CCC[C@@H](n2nc(-c3ccc(Oc4ccccc4)cc3)c3c(N)ncnc32)C1 (stereo partly shown) [Compound I-37]
GSPT1
  DC50: > 2.5 µM

## C=C(CN(C(=O)NCc1ccc2c(c1)CN(C1CCC(=O)NC1=O)C2=O)c1ccc(OC)c(Cl)c1)C(=O)N1CCC[C@@H](n2nc(-c3ccc(Oc4ccccc4)cc3)c3c(N)ncnc32)C1 (stereo partly shown) [Compound I-39]
[1]
  GI50: > 10 µM
HeLa cells (ATCC CCL-2)
  GI50: > 10 µM
GSPT1
  DC50: > 2.5 µM

## C=C(CN(C(=O)NCc1ccc2c(c1)CN(C1CCC(=O)NC1=O)C2=O)c1cc(Cl)cc(OC)c1)C(=O)N1CCC[C@@H](n2nc(-c3ccc(Oc4ccccc4)cc3)c3c(N)ncnc32)C1 (stereo partly shown) [Compound I-40]
[1]
  GI50: > 10 µM
HeLa cells (ATCC CCL-2)
  GI50: > 10 µM
GSPT1
  DC50: > 2.5 µM

## C=C(COc1c(F)cc(CN2C(=O)CCC(N3Cc4cc(CNC(=O)Nc5ccc(C)c(Cl)c5)ccc4C3=O)C2=O)cc1F)C(=O)N1CCC[C@@H](n2nc(-c3ccc(Oc4ccccc4)cc3)c3c(N)ncnc32)C1 (stereo partly shown) [Compound I-51]
[1]
  GI50: > 10 µM
HeLa cells (ATCC CCL-2)
  GI50: > 10 µM
GSPT1
  DC50: > 2.5 µM

## C=C(COC(=O)NCc1cc(Cl)cc(NC(=O)NCc2ccc3c(c2)CN(C2CCC(=O)NC2=O)C3=O)c1)C(=O)N1CCC[C@@H](n2nc(-c3ccc(Oc4ccccc4)cc3)c3c(N)ncnc32)C1 (stereo partly drawn) [Compound I-53, 2-((R)-3-(4-amino-3-(4-phenoxyphenyl)-1H-pyrazolo[3,4-d]pyrimidin-1-yl)piperidine-1-carbonyl)allyl (3-chloro-5-(3-((2-(2,6-dioxopiperidin-3-yl)-1-oxoisoindolin-5-yl)methyl)ureido)benzyl)carbamate]
[1]
  GI50: 0.5 to 1.5 µM
HeLa cells (ATCC CCL-2)
  GI50: 0.5 to 1.5 µM
GSPT1
  DC50: 0.05 to 0.5 µM

## C=C(COc1cccc(NC(=O)NCc2ccc3c(c2)CN(C2CCC(=O)NC2=O)C3=O)c1Cl)C(=O)N1CCN(c2nc(OC[C@@H]3CCCN3C)nc3c2CCN(c2cccc4cccc(Cl)c24)C3)C[C@@H]1CC#N (stereo partly shown) [Compound I-91]
[1]
  GI50: > 10 µM
HeLa cells (ATCC CCL-2)
  GI50: > 10 µM

## C=C(COc1ccc2c(Cl)c(NC(=O)NCc3ccc4c(c3)CN(C3CCC(=O)NC3=O)C4=O)ccc2c1)C(=O)N1CCN(c2nc(OC[C@@H]3CCCN3C)nc3c2CCN(c2cccc4cccc(Cl)c24)C3)C[C@@H]1CC#N (stereo partly shown) [Compound I-92]
[1]
  GI50: < 0.5 µM
HeLa cells (ATCC CCL-2)
  GI50: > 10 µM

## C=C(Cn1ccc2ccc(NC(=O)NCc3ccc4c(c3)CN(C3CCC(=O)NC3=O)C4=O)cc21)C(=O)N1CCN(c2nc(OC[C@@H]3CCCN3C)nc3c2CCN(c2cccc4cccc(Cl)c24)C3)C[C@@H]1CC#N (stereo partly shown) [Compound I-93]
[1]
  GI50: 0.5 to 1.5 µM
HeLa cells (ATCC CCL-2)
  GI50: 0.5 to 1.5 µM

## C=C(COc1cc(NC(=O)NCc2ccc3c(c2)CN(C2CCC(=O)NC2=O)C3=O)cc(OC)c1Cl)C(=O)N1CCN(c2nc(OC[C@@H]3CCCN3C)nc3c2CCN(c2cccc4cccc(Cl)c24)C3)C[C@@H]1CC#N (stereo partly shown) [Compound I-96]
[1]
  GI50: > 10 µM
HeLa cells (ATCC CCL-2)
  GI50: > 10 µM

## C=C(COc1c(Cl)cccc1NC(=O)NCc1ccc2c(c1)CN(C1CCC(=O)NC1=O)C2=O)C(=O)N1CCC[C@@H](n2nc(-c3ccc(Oc4ccccc4)cc3)c3c(N)ncnc32)C1 (stereo partly shown) [Compound I-115]
[1]
  GI50: 1.5 to 10 µM
HeLa cells (ATCC CCL-2)
  GI50: 0.5 to 1.5 µM
GSPT1
  DC50: < 0.05 µM

## C=C(COC(=O)NC1CCC(Nc2nc(NCc3ccc(-c4ccccn4)cc3)c3ncn(C(C)C)c3n2)CC1)C(=O)N1CCN(c2nc(OC[C@@H]3CCCN3C)nc3c2CCN(c2cccc4cccc(Cl)c24)C3)C[C@@H]1CC#N (stereo partly shown) [II-192]
[1]
  GI50: 0.5 to 1.5 µM
HeLa cells (ATCC CCL-2)
  GI50: < 0.5 µM
